Assay results from paper PMC11488110 (Theranostics, 2024).
Entries after “also recorded” stand apart in the source; their conditions may differ.

Experiments:
[1] = Metabolic stability assay in liver microsomes; assay type: in vitro ADME, rat; details: 1 μM, 30 min
Protocol: (§1) The metabolic stability assay was performed by incubation of human and selected animal liver microsomes (dog, rat, and mouse) with the test compound at a final concentration of 1 μM, in the presence of 0.5 mg/ml microsomal protein and NADPH-regeneration system, in a total volume of 100 μL phosphate buffer 100 mM (pH 7.4) at 37 °C. The incubation was started by introducing the NADPH-regeneration system and terminated by adding 40 μL of ice-cold acetonitrile at 0- and 30 min. Precipitated proteins were removed by centrifugation at 10,000 g and 4 °C for 5 min. Aliquots of the supernatant were injected onto an LC-MS/MS system. Incubations terminated prior to addition of the NADPH-regeneration system (time point, 0 min) were used as standards, defined as 100%. Percent of the parent compound remaining was calculated by comparing peak areas.
(§2) Ta b l e S2 . CYP inhibition, microsomal stability, and hERG in hibition of 5a .
(§3) CYP inhibitiona Microsomal stabilityb
(§4) ( % of c ont rol ac ti vit y) (% of remaining compound) hERG inhibitionc (IC50, μ M) […]
(§5) aCytochrome P450 (CYP450) enzyme activity was measured by incubating CYP450 enzyme isotype-specific substrates and liver microsomes in the presence of the test compound (10 μM) for 15 min. […]

[2] = Metabolic stability assay in liver microsomes; assay type: in vitro ADME, mouse; details: 1 μM, 30 min
Protocol: as §1, §2, §3, §4, §5

[3] = tested on: Salmonella typhimurium TA98; assay: Ames MPF mutagenicity assay, TA98; assay type: cell-based
Protocol: (§6) An Ames microplate format (MPF) 98/100 mutagenesis assay kit (Xenometrix) was used to test mutagenic activity. The TA98 / TA100 Salmonella strain was inoculated into the bacterial culture medium and cultured overnight. The Salmonella test strain was then exposed to six concentrations of the test compound (plus positive and negative controls). Samples were prepared in 96-well plates in sterile DMSO. The cultured bacteria, test compound, and S9 mixture were incubated for 90 min at 37 °C in a shaking incubator. The mixture was then treated with an indicator medium and dispensed into 384-well plates. The plates were incubated at 37 °C for 48 h. The number of wells containing revertant colonies was counted for each dose.
(§7) Ta b l e S4 . Tw o -strain Ames mutagenic assess ment of 5a.
(§8) Straina Activity in the absence (-) of S9b Activity in the presence (+) of S9b TA 9 8 Negative (-) Negative (-)
(§9) TA 1 0 0 Negative (-) Negative (-) aSalmonella typhimurium strains TA98 (hi s D3052 mutation) and TA100 (hisG46 mutation) were used to detect frameshift mutations and base- pair substitution mutations, respectively. bAroclor 1254- induced rat liver S9 fraction for exogenous metabolic activation.

[4] = tested on: Salmonella typhimurium TA100; assay: Ames MPF mutagenicity assay, TA100; assay type: cell-based
Protocol: as §6, §7, §8, §9

BV-2 microglial cells [5] = assay: Cytotoxicity assay (EZ-Cytox) in BV-2 microglia; assay type: cell-based, mouse; details: up to 20 μM, 24 h
Protocol: The in vitro cytotoxicity of 5a was evaluated using the EZ-Cytox assay kit (DoGenBio, South Korea). […] Absorbance was measured at 450 nm, after 1 h of incubation with EZ-Cytox containing water-soluble tetrazolium salt (WST), using a SpectraMax®i3 microplate reader (Molecular Devices).

BV-2 microglial cells [6] = assay: HO-1 expression and intracellular ROS in BV-2 microglia; assay type: cell-based, mouse
Protocol: Total proteins were extracted from cells or mouse brain tissues using radioimmunoprecipitation assay (RIPA) buffer (Sigma-Aldrich) containing a protease and phosphatase inhibitor cocktail (Roche Diagnostics). After 30 min of incubation with RIPA buffer on ice, lysates were centrifuged at 15800 g and 4 °C for 20 min and supernatants were collected. Protein concentrations were determined using Pierce® BCA Protein Assay Kit (Thermo Fisher Scientific). Protein samples (10 μg) were separated on 10% SDS-PAGE gels and transferred to polyvinylidene fluoride (PVDF) membranes (Millipore). The membranes were blocked in 5% skim milk (Millipore) in TBST (10 mM Tris-HCl, pH 7.5, 150 mM NaCl, and 0.1% Tween® 20) for 1 h at room temperature and incubated overnight at 4 °C with primary antibodies. […] The western blot bands were analyzed using ImageJ software (NIH) and β-Actin or glyceraldehyde 3-phosphate dehydrogenase (GAPDH) were used as a loading control. […]
Intracellular ROS accumulation was monitored using the cell-permeable fluorescent probe DCFH-DA (Sigma-Aldrich). […] After washing with phosphate-buffered saline (PBS), cells were imaged with an ImageXpress Pico (Molecular Devices) and fluorescence intensity was quantified using the ImageJ software (NIH).

[7] = tested on: C57BL/6N mice with LPS-induced neuroinflammation; assay: LPS-induced neuroinflammation mouse model; assay type: in vivo
[8] = tested on: C57BL/6N mice with scopolamine-induced cognitive impairment; assay: Scopolamine-induced memory impairment mouse model; assay type: in vivo
[9] = Pharmacokinetics in Sprague-Dawley rats; details: rat, plasma
[10] = 30 mg/kg p.o. 10 days, LPS 0.3 mg/kg 7 days
[11] = 30 mg/kg/day p.o., LPS 0.3 mg/kg/day i.p.
[12] = 30 mg/kg/day p.o. 5 days before scopolamine 1 mg/kg i.p.

## Cc1cc(SCc2[se]c(-c3ccc(C(F)(F)F)cc3)nc2C)ccc1OCC(=O)O [Compound 5a, {2-Methyl-4-[4-methyl-2-(4-trifluoromethyl-phenyl)-selenazol-5-yl-methylsulfanyl]-phenoxy}-acetic acid]
[1]
  Microsomal stability, Rat (% of remaining compound): 73.3 % of remaining compound
[2]
  Microsomal stability, Mouse (% of remaining compound): 76.1 % of remaining compound
[3]; TA98, with rat liver S9
  Ames mutagenic activity in the presence (+) of S9: Negative (-); also recorded: lacks mutagenicity
[3]; TA98, without S9
  Ames mutagenic activity in the absence (-) of S9: Negative (-); also recorded: lacks mutagenicity
[4]; TA100, with rat liver S9
  Ames mutagenic activity in the presence (+) of S9: Negative (-); also recorded: lacks mutagenicity
[4]; TA100, without S9
  Ames mutagenic activity in the absence (-) of S9: Negative (-); also recorded: lacks mutagenicity
BV-2 microglial cells [5]
  Viability of BV-2 cells: did not affect the viability; also recorded: less cytotoxic than GW501516
BV-2 microglial cells [6]; BV-2, 5 μM 24 h, H2O2 200 μM 20 min
  Intracellular ROS production (DCFH-DA): suppressed ROS production
BV-2 microglial cells [6]; BV-2, 48 h
  HO-1 expression: increased the expression of HO-1
[7]; [10]
  CD86 expression in IBA1-positive microglia: significantly reduced the expression
  GFAP and IBA1 immunoreactivity, hippocampus and cortex: inhibited
  Plasma TNF-α and IL-6: prevented the LPS-induced increases
  Spleen size and weight: reduced the size and weight of spleens
[7]; [11]
  Open-field motor activity (traveled distance, immobility time): improved motor activity
  Open-field time spent in the center: spent more time in the center
  Passive avoidance step-through latency: significantly prevented this decrease
  Y-maze number of arm entries: increased the number of arm entries
  Y-maze spontaneous alternation: higher percentage of spontaneous alternations
[8]; [12]
  Y-maze spontaneous alternation: prevented the decrease in alternation percentage
  Y-maze total number of arm entries: without inducing any changes
[8]; 30 mg/kg/day p.o., scopolamine 1 mg/kg i.p.
  Passive avoidance step-through latency: mitigated this effect
[8]; post-administration, 10 mg/kg p.o.
  Memory in Y-maze, passive avoidance and Morris water maze: significantly restored the memory impairment
[8]; post-administration, 30 mg/kg p.o.
  Memory in Y-maze, passive avoidance and Morris water maze: maximum efficacy
[8]; post-administration, same dose 30 mg/kg
  Cognitive improvement compared with GW501516: superior in vivo efficacy
[9]; iv, 5 mg/kg
  AUC: 7350 ng·h/mL
  Vd: 2.3 ± 0.1 L/kg
  clearance: 10.2 mL/min/kg
  half-life: 2.3 ± 0.6 h
[9]; oral, 10 mg/kg
  bioavailability: 90.7%
[9]; po, 10 mg/kg
  AUC: 13300 ng·h/mL
  Cmax: 2740 ng/mL
